The target in one assay is S. typhimurium EngA. Also noted: method as in PMID 17905831. The note with it: cited from earlier work.
The target in assay [1] is T1, GD1 (Bacillus subtilis, UniProt P50743).
T1 construct: two shortened EngA variants that only contain GD1 or GD2-KH; His-tag (from pET15b; purified on Ni-IDA) (N); made in house; host or cells: E. coli C41(DE3)
T1 sequence (P50743 4-167 limits assumed): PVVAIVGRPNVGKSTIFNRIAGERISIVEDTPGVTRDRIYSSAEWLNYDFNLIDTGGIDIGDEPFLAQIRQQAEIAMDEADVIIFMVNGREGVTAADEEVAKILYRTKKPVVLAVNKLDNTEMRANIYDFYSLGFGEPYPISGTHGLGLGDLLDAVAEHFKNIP
In words: Fluorescence-based Thermal Shift Assay (TSA). Format: binding. The note with it: for Tm: GD1 with 1 mM nucleotide, no effector Tm 51. As for the experimental part: (§1) Assays were performed into a 96-well thin-wall PCR plate (BioRad) using an IQ5 96-well format real-time PCR instrument (Bio-Rad) over a temperature range from 20°C to 90°C with temperature increments of 0.2°C [64]. Assay samples (23 µl) contained 50 mM Tris/HCl pH 8, 0.5 mg/ml of EngA or 1.5 mg/ml of GD1 or GD2-KH, and concentration of salt and/or nucleotides as indicated, and 2 µl of SYPRO Orange solution (Molecular Probes, Eugene, OR, 500x in DMSO diluted 5 times in water) was added. The plates were heated and changes in fluorescence for the environmentally sensitive dye SYPRO Orange were monitored through a charge-coupled device (CCD) camera. The melting temperature (Tm) values for each protein were determined graphically from the fluorescence first derivative of the melting curves. The wavelengths for excitation and emission were 470 nm and 570 nm, respectively.

For assay [2], the target named is T2, GD2-KH (Bacillus subtilis, UniProt P50743).
T2 construct: two shortened EngA variants that only contain GD1 or GD2-KH; His-tag (from pET15b; purified on Ni-IDA) (N); made in house; host or cells: E. coli C41(DE3)
T2 sequence (P50743 173-436): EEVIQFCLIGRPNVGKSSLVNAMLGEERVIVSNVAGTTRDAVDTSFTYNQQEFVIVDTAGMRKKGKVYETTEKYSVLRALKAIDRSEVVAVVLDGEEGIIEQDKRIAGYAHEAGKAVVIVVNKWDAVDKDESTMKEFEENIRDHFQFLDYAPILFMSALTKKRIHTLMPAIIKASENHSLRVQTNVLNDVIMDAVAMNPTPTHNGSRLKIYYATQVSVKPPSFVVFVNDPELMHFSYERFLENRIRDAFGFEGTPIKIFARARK
As to the kind of experiment: Fluorescence-based Thermal Shift Assay (TSA). The class given is binding. The note with it: for Tm: GD2-KH with 1 mM nucleotide, no effector Tm 42.8. Here is the method: as §1

In another assay the target is T3, EngA (Bacillus subtilis, UniProt P50743).
T3 construct: full-length EngA (named hereafter as EngA) and its two shortened EngA variants, GD1 and GD2-KH were overexpressed in E. coli; His-tag (from pET15b; purified on Ni-IDA) (N); made in house; host or cells: E. coli C41(DE3)
T3 sequence (P50743 1-436): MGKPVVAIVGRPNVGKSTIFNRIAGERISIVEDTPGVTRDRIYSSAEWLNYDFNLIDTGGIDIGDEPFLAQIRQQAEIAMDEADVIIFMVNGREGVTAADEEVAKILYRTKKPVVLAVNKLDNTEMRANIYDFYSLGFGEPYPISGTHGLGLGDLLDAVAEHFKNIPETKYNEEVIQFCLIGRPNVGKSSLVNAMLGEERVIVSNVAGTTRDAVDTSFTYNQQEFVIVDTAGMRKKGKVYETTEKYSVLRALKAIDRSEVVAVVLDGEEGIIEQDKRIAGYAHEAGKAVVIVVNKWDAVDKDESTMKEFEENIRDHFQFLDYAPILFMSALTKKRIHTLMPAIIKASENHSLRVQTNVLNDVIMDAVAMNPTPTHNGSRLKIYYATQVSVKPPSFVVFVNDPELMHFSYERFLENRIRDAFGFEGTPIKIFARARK
As to the kind of experiment: Fluorescence-based Thermal Shift Assay (TSA). Format: binding. The conditions noted are these: EngA with 1 mM nucleotide; no effector Tm 41.5. As for the experimental part:
as §1

Assay [3] concerns the target T4, B. subtilis EngA (Bacillus subtilis, UniProt P50743).
T4 construct: full-length EngA (named hereafter as EngA) and its two shortened EngA variants, GD1 and GD2-KH were overexpressed in E. coli; His-tag (from pET15b; purified on Ni-IDA) (N); made in house; host or cells: E. coli C41(DE3)
T4 sequence (P50743 1-436): T3 sequence (P50743 1-436)
In words: Nucleotide binding monitored by intrinsic tryptophan fluorescence. As for the experimental part: (§2) Fluorescence measurements were performed essentially as described previously for the unmodified nucleotides or the N-methylanthraniloyl-GDP (MANT-GDP) analogue using a PTI QuantaMaster 4 spectrofluorimeter, [62]. Dissociation constants (K D) for nucleotides were calculated by monitoring intrinsic tryptophan fluorescence variation using 295 nm excitation wavelength, with a slit width of 2 nm, and scanning emission fluorescence between 310 and 400 nm (for the unmodified nucleotide) or 400 and 500 nm (for MANT-GDP), with a slit width of 4 nm. For the intrinsic tryptophan fluorescence, inner filter effect was corrected using N-Acetyltryptophanamide (NATA) as a reference. 1 µM NATA or 0.5 µM of YphC were mixed with 50 mM Tris/HCl pH 8, 2 mM MgCl2, NaCl or KCl and increasing amount of nucleotide (GDP, GMPPNP or MANT-GDP), as indicated in the figure legends. The fluorescence was normalized respective to the integrated value of the fluorescence peak obtained in the absence of unmodified nucleotide (between 310 and 400 nm) or MANT-GDP (between 400 and 500 nm). The data were fitted using the GraFit 5.0.11 software with the following equation: [drawing 1] where F is the relative fluorescence intensity in the presence of nucleotide, F min is the relative fluorescence in the absence of nucleotide, F max is the fluorescence intensity at saturating concentration of nucleotide, L is the nucleotide concentration, E is the protein concentration and K D is the dissociation constant of the protein-nucleotide complex.

Assay [4] addresses T5, GD2-KH (shortened B. subtilis EngA variant) (Bacillus subtilis, UniProt P50743).
T5 construct: two shortened EngA variants that only contain GD1 or GD2-KH; His-tag (from pET15b; purified on Ni-IDA) (N); made in house; host or cells: E. coli C41(DE3)
The assay is described as above. As for the experimental part: as §2

Assay [5] has as its target T6, GD1 (shortened B. subtilis EngA variant) (Bacillus subtilis, UniProt P50743).
T6 construct: two shortened EngA variants that only contain GD1 or GD2-KH; His-tag (from pET15b; purified on Ni-IDA) (N); made in house; host or cells: E. coli C41(DE3)
Described as above. As for the experimental part: as §2

The next assay relates to M. smegmatis EngA. More on the design: method as in PMID 22506030. The conditions noted are these: cited from earlier work.
In a further assay the test system is E. coli EngA. More on the design: method as in PMID 16963571. The conditions noted are these: cited from earlier work.
Assay [6] addresses T7, B. subtilis EngA (Bacillus subtilis, UniProt P50743).
T7 construct: full-length EngA (named hereafter as EngA) and its two shortened EngA variants, GD1 and GD2-KH were overexpressed in E. coli; His-tag (from pET15b; purified on Ni-IDA) (N); made in house; host or cells: E. coli C41(DE3)
The class given is biochemical. The conditions noted are these: for Km / Vmax / kcat: GTP hydrolysis by EngA; for kcat: fitted; for GTPase activity corresponding to 100%: wild-type EngA, 300 mM KCl. Here is the method:
(§3) GTPase activities were determined using a coupled-enzymatic assay containing pyruvate kinase and lactate dehydrogenase as previously described. The proteins (2 µM or 8 µM of EngA in the presence of KCl or NaCl, respectively, and 4 µM for GD1 and 12.5 µM for GD2-KH) and the coupled assay system containing 50 mM Tris/HCl pH 8, 4 mM phosphoenol pyruvate, 0.4 mM NADH, 1 mM MgCl2, 30 µg pyruvate kinase and 15 µg lactate dehydrogenase, were mixed into a quartz cuvette (final volume of 750 µl) in the presence of GTP (up to 1 mM) and salts, either KCl or NaCl, as indicated in the figure legends. When the GTPase and XTPase activities of the wild-type EngA and the single point mutants were studied (Fig. 7), the assay medium (final volume of 500 µl) contained 3 mM MgCl2 and the pyruvate kinase was increased to 120 µg to ensure an immediate conversion of XDP back into XTP. The reaction was started by adding 3.2 µM or 0.8 µM of wild-type EngA or single point mutants in the absence or presence of 300 mM K^+, respectively. GTP or XTP hydrolysis was monitored by following the change in absorbance at 340 nm upon conversion of NADH to NAD^+, for 10 min at 37°C, using either a Hitachi U3350 or a Safas UVmc^2 spectrophotometer. The slope measured (ΔDO/min) was used to calculate the activity of the protein taking into account the εNADH340nm = 6220 l.mol^−1.cm^−1. Control experiments were systematically performed in the absence of nucleotides (protein alone) or in the absence of proteins (nucleotides alone) and the activities measured in all cases were negligible. Between many different EngA preparations, the specific activities measured at 1 mM GTP varied between 100–130 nmoles/min/mg protein.

Another assay has as its system T. maritima EngA. The note with it: cited from earlier work.
Assay [7] has as its target T1, GD1. As to the kind of experiment: GTP hydrolysis coupled-enzymatic assay. Format: biochemical. The note with it: GD1, absence of K+. As for the experimental part:
as §3

Assay [8] addresses T2, GD2-KH. In words: GTP hydrolysis coupled-enzymatic assay. The conditions noted are these: GD2-KH, absence of K+. Format: biochemical. As for the experimental part: as §3

Like-named read-outs stand apart in the source and are kept apart here.

In the case of `Nc1nc2c(ncn2[C@@H]2O[C@H](COP(=O)(O)OP(=O)(O)O)[C@@H](O)[C@H]2O)c(=O)[nH]1` [GDP], the Kd is 1 to 3 µM at S. typhimurium EngA (both G-domains); 16.3 ± 2.3 µM at B. subtilis EngA [3] (KD, 300 mM KCl); 12.8 ± 2.9 µM on B. subtilis EngA [3] (KD, 300 mM NaCl); 8 ± 1 µM at B. subtilis EngA [3] (KD, no salt (absence of K+), 2 mM MgCl2, 25°C); 2.9 ± 0.8 µM in [4] (300 mM KCl); 1.6 ± 0.2 µM in [4] (300 mM NaCl). Further, the Kd is 4.5 ± 0.9 µM in assay [5] (GD1, 300 mM KCl) and 2.7 ± 0.4 µM in [5] (GD1, 300 mM NaCl). Moreover, the Tm on GD1 [1] turned out to be 64 °C; at GD2-KH [2] it was 55.8 °C; on EngA it was 59.4 °C. The ΔTm at 1000 µM was around 13 °C at GD1 [1] (pH 8, read-out: Tm increase) and around 13 °C at GD2-KH [2] (pH 8, read-out: Tm increase).
As to `Nc1nc2c(ncn2[C@@H]2O[C@H](COP(=O)(O)OP(=O)(O)NP(=O)(O)O)[C@@H](O)[C@H]2O)c(=O)[nH]1` [GMPPNP], the Tm was found to be 55.5 °C on GD1 [1], 48.3 °C at GD2-KH [2] and 48.8 °C at EngA. For the same molecule, the Kd on B. subtilis EngA [3] (300 mM KCl, read-out: KD) is 18.8 ± 2.8 µM; on B. subtilis EngA [3] (300 mM NaCl, read-out: KD), 16.5 ± 3.7 µM; at B. subtilis EngA [3] (no salt (absence of K+), 2 mM MgCl2, 25°C, read-out: KD) it was 25.7 ± 2.8 µM; in assay [4] (300 mM KCl), 6.8 ± 2 µM; in assay [4] (300 mM NaCl), 15.2 ± 1.3 µM; in [5] (GD1, 300 mM KCl), 35.7 ± 4.9 µM. The same molecule gave a Kd in [5] (GD1, 300 mM NaCl) of 17.8 ± 2.4 µM.
For `Nc1nc2c(ncn2[C@@H]2O[C@H](COP(=O)(O)OP(=O)(O)OP(=O)(O)O)[C@@H](O)[C@H]2O)c(=O)[nH]1` [GTP], the Km in the assay on M. smegmatis EngA (GTP, M. smegmatis EngA) was 39 µM; with E. coli EngA (GTP, E. coli EngA), 143 µM; at B. subtilis EngA [6] (300 mM K+) it was 153 µM; on B. subtilis EngA [6] (no K+), 111 µM; in the assay on T. maritima EngA (GTP, T. maritima EngA), 110 µM. Also, the kcat in the assay with M. smegmatis EngA (absence of K+) was 8.3e-05 s⁻¹; in the assay on E. coli EngA (400 mM K+) it was 0.0193 s⁻¹; at B. subtilis EngA [6] (300 mM K+), around 0.123 s⁻¹; at B. subtilis EngA [6] (no K+) it was around 0.005 s⁻¹; in the assay on T. maritima EngA (400 mM K+), 0.0145 s⁻¹. Also, the results for the Kd on S. typhimurium EngA (higher-affinity site (proposed GD1)) and on S. typhimurium EngA (lower-affinity site (proposed GD2)) were around 12 µM and above 100 µM, respectively. In addition, the specific activity on B. subtilis EngA [6] (1 mM GTP, different EngA preparations) is 100–130 nmoles/min/mg protein. In addition, the “GTPase activity (kcat)” value at B. subtilis EngA [6] (EngA, absence of K+) was in the range of 0.005 to 0.0083 s⁻¹. Moreover, the values for the Vmax at B. subtilis EngA [6] (300 mM K+) and on B. subtilis EngA [6] (absence of K+) were 144.5±3.4 nmol/min/mg protein and 6.1±0.2 nmol/min/mg protein, respectively. For the same molecule, the “GTPase activity corresponding to 100%” value at B. subtilis EngA [6] (200 µM nucleotide) was 77 µmol GTP hydrolyzed/min/mg proteins; at B. subtilis EngA [6] (1 mM GTP), 100 µmol GTP hydrolyzed/min/mg proteins. For the same molecule, the GTPase activity at GD1 [7] was around 0.6 min⁻¹; at GD2-KH [8], 0.004 min⁻¹.

Values taken from article PMC3466195, “Potassium Acts as a GTPase-Activating Element on Each Nucleotide-Binding Domain of the Essential Bacillus subtilis EngA” (PLoS ONE, 2012).
